Data as given in ChEMBL document CHEMBL3046280, “Synthesis of 1-amidoalkyl-2-naphthols and oxazine derivatives with study of their antibacterial and antiviral activities” (Med Chem Res, 2013).
Calls of active or inactive are those of the source. No cut-off for these calls is given here.

Columns and labels:
[1] = system: Escherichia coli; assay: Antibacterial activity against Escherichia coli assessed as growth inhibition; assay type: functional, organism-based
[2] = Therapeutic index, ratio of LD50 for african green monkey Vero cells to EC50 for Avian influenza virus H5N1 infected in african green monkey Vero cells; assay type: cell-based; details: read-out: Ratio LD50/EC50
[3] = system: Vero; assay: Cytotoxicity against Chlorocebus aethiops (African green monkey) Vero cells after 24 hr by MTT assay; assay type: cell-based; details: chlorocebus sabaeus
[4] = system: Proteus mirabilis; assay: Antibacterial activity against Proteus mirabilis assessed as growth inhibition; assay type: functional
[5] = system: Bacillus subtilis; assay: Antibacterial activity against Bacillus subtilis assessed as growth inhibition; assay type: functional
[6] = system: Klebsiella pneumoniae; assay: Antibacterial activity against Klebsiella pneumoniae assessed as growth inhibition; assay type: functional
[7] = system: Staphylococcus aureus; assay: Antibacterial activity against Staphylococcus aureus assessed as growth inhibition; assay type: functional
[8] = system: unidentified influenza virus; assay: Antiviral activity against unidentified influenza virus (H5N1) infected African green monkey Vero cells assessed as protection against virus-induced cytopathic effect incubated for 3 days measured on day 4 post infection by MTT assay; assay type: functional, organism-based
[9] = system: Pseudomonas aeruginosa; assay: Antibacterial activity against Pseudomonas aeruginosa assessed as growth inhibition; assay type: functional, organism-based
[10] = system: Klebsiella pneumoniae; assay: Antibacterial activity against Klebsiella pneumoniae assessed as growth inhibition at 0.042 uM/ml; assay type: functional, organism-based
[11] = system: Proteus mirabilis; assay: Antibacterial activity against Proteus mirabilis assessed as growth inhibition at 0.042 uM/ml; assay type: functional, organism-based
[12] = system: Bacillus subtilis; assay: Antibacterial activity against Bacillus subtilis assessed as growth inhibition at 0.042 uM/ml; assay type: functional, organism-based

## c1ccc(C2=NC(c3c[nH]c4ccccc34)c3c(ccc4ccccc34)O2)cc1 (stereo not given)
[1]
  growth inhibition (GI): inactive
[2]
  selectivity ratio: 2.12
[3]
  LD50: 0.104 uM/ml
[4]
  growth inhibition (GI): inactive
[5]
  diameter of the inhibition zone (DIZ): 14 mm
[6]
  diameter of the inhibition zone (DIZ): 11 mm
[7]
  diameter of the inhibition zone (DIZ): 11 mm
[8]
  EC50: 0.049 uM/ml
[9]
  growth inhibition (GI): inactive

## NC(=O)NC(c1cn(-c2ccccc2)nc1-c1ccccc1)c1c(O)ccc2ccccc12 (stereo not given)
[1]
  growth inhibition (GI): inactive
[2]
  selectivity ratio: 6.84
[3]
  LD50: 0.171 uM/ml
[4]
  diameter of the inhibition zone (DIZ): 0 mm
[5]
  growth inhibition (GI): inactive
[6]
  diameter of the inhibition zone (DIZ): 11 mm
[7]
  diameter of the inhibition zone (DIZ): 24 mm
[8]
  EC50: 0.025 uM/ml
[9]
  growth inhibition (GI): inactive

## O=C(NC(c1cn(-c2ccccc2)nc1-c1ccccc1)c1c(O)ccc2ccccc12)c1ccccc1 (stereo not given)
[1]
  growth inhibition (GI): inactive
[2]
  selectivity ratio: 5.44
[3]
  LD50: 0.098 uM/ml
[4]
  growth inhibition (GI): inactive
[5]
  diameter of the inhibition zone (DIZ): 20 mm
[6]
  diameter of the inhibition zone (DIZ): 14 mm
[7]
  growth inhibition (GI): inactive
[8]
  EC50: 0.018 uM/ml
[9]
  growth inhibition (GI): inactive

## CC(=O)NC(c1c(O)ccc2ccccc12)c1c[nH]c2ccccc12 (stereo not given)
[1]
  growth inhibition (GI): inactive
[2]
  selectivity ratio: 8.95
[3]
  LD50: 0.197 uM/ml
[4]
  growth inhibition (GI): inactive
[5]
  diameter of the inhibition zone (DIZ): 17 mm
[6]
  growth inhibition (GI): inactive
[7]
  diameter of the inhibition zone (DIZ): 20 mm
[8]
  EC50: 0.022 uM/ml
[9]
  growth inhibition (GI): inactive

## NC(=O)NC(c1c(O)ccc2ccccc12)c1c[nH]c2ccccc12 (stereo not given)
[1]
  growth inhibition (GI): inactive
[2]
  selectivity ratio: 7
[3]
  LD50: 0.217 uM/ml
[4]
  growth inhibition (GI): inactive
[5]
  growth inhibition (GI): inactive
[6]
  diameter of the inhibition zone (DIZ): 11 mm
[7]
  growth inhibition (GI): inactive
[8]
  EC50: 0.031 uM/ml
[9]
  growth inhibition (GI): inactive

## O=C(NC(c1c(O)ccc2ccccc12)c1c[nH]c2ccccc12)c1ccccc1 (stereo not given)
[1]
  growth inhibition (GI): inactive
[2]
  selectivity ratio: 16.2
[3]
  LD50: 0.307 uM/ml
[4]
  growth inhibition (GI): inactive
[5]
  diameter of the inhibition zone (DIZ): 11 mm
[6]
  growth inhibition (GI): inactive
[7]
  diameter of the inhibition zone (DIZ): 11 mm
[8]
  EC50: 0.019 uM/ml
[9]
  growth inhibition (GI): inactive

## NC1=NC(c2c[nH]c3ccccc23)c2c(ccc3ccccc23)O1 (stereo not given)
[1]
  growth inhibition (GI): inactive
[2]
  selectivity ratio: 2.05
[3]
  LD50: 0.125 uM/ml
[4]
  growth inhibition (GI): inactive
[5]
  diameter of the inhibition zone (DIZ): 12 mm
[6]
  diameter of the inhibition zone (DIZ): 13 mm
[7]
  growth inhibition (GI): inactive
[8]
  EC50: 0.061 uM/ml
[9]
  growth inhibition (GI): inactive

## GENTAMICIN
[10]
  inhibition zone (IZ): 19 mm
[11]
  inhibition zone (IZ): 25 mm
[12]
  inhibition zone (IZ): 21 mm

## CC(=O)N[C@H]1[C@H]([C@H](O)[C@H](O)CO)OC(C(=O)O)=C[C@@H]1NC(=N)N [ZANAMIVIR]
[2]
  selectivity ratio: 15.5
[3]
  LD50: 0.232 uM/ml
[8]
  EC50: 0.015 uM/ml

## c1ccc(-c2nn(-c3ccccc3)cc2C2NC(c3cn(-c4ccccc4)nc3-c3ccccc3)c3c(ccc4ccccc34)O2)cc1 (stereo not given)
[1]
  growth inhibition (GI): inactive
[2]
  selectivity ratio: 1.98
[3]
  LD50: 0.089 uM/ml
[4]
  growth inhibition (GI): inactive
[5]
  diameter of the inhibition zone (DIZ): 11 mm
[6]
  diameter of the inhibition zone (DIZ): 11 mm
[7]
  diameter of the inhibition zone (DIZ): 11 mm
[8]
  EC50: 0.045 uM/ml
[9]
  growth inhibition (GI): inactive

## c1ccc2c3c(ccc2c1)OC(c1c[nH]c2ccccc12)NC3c1c[nH]c2ccccc12 (stereo not given)
[1]
  growth inhibition (GI): inactive
[2]
  selectivity ratio: 0.726
[3]
  LD50: 0.122 uM/ml
[4]
  growth inhibition (GI): inactive
[5]
  diameter of the inhibition zone (DIZ): 13 mm
[6]
  diameter of the inhibition zone (DIZ): 12 mm
[7]
  growth inhibition (GI): inactive
[8]
  EC50: 0.168 uM/ml
[9]
  growth inhibition (GI): inactive

## CC(=O)NC(c1cn(-c2ccccc2)nc1-c1ccccc1)c1c(O)ccc2ccccc12 (stereo not given)
[1]
  growth inhibition (GI): inactive
[2]
  selectivity ratio: 7.19
[3]
  LD50: 0.151 uM/ml
[4]
  growth inhibition (GI): inactive
[5]
  growth inhibition (GI): inactive
[6]
  diameter of the inhibition zone (DIZ): 18 mm
[7]
  growth inhibition (GI): inactive
[8]
  EC50: 0.021 uM/ml
[9]
  growth inhibition (GI): inactive

## NC1=NC(c2cn(-c3ccccc3)nc2-c2ccccc2)c2c(ccc3ccccc23)O1 (stereo not given)
[1]
  growth inhibition (GI): inactive
[2]
  selectivity ratio: 5.61
[3]
  LD50: 0.083 uM/ml
[4]
  growth inhibition (GI): inactive
[5]
  diameter of the inhibition zone (DIZ): 12 mm
[6]
  diameter of the inhibition zone (DIZ): 11 mm
[7]
  growth inhibition (GI): inactive
[8]
  EC50: 0.0148 uM/ml
[9]
  growth inhibition (GI): inactive
